Several values for one entry are separate records, joined by “and”; a condition that tells them apart may be missing. Equal entries are not always repeated.
Experiments:
Assay in all cases: In-cell proteome-wide competitive ABPP, HEK293: other DUBs and proteins
[1] = target: T1, DUBs and other proteins in HEK293 cells (Homo sapiens, UniProt P40818); settings: for Log2 reporter intensity values: USP8: competition with ABP 2, DMSO substract (FC), replicates A-B; for Log2 reporter intensity values: USP8, DMSO subtracted
T1 sequence (P40818 1-1118): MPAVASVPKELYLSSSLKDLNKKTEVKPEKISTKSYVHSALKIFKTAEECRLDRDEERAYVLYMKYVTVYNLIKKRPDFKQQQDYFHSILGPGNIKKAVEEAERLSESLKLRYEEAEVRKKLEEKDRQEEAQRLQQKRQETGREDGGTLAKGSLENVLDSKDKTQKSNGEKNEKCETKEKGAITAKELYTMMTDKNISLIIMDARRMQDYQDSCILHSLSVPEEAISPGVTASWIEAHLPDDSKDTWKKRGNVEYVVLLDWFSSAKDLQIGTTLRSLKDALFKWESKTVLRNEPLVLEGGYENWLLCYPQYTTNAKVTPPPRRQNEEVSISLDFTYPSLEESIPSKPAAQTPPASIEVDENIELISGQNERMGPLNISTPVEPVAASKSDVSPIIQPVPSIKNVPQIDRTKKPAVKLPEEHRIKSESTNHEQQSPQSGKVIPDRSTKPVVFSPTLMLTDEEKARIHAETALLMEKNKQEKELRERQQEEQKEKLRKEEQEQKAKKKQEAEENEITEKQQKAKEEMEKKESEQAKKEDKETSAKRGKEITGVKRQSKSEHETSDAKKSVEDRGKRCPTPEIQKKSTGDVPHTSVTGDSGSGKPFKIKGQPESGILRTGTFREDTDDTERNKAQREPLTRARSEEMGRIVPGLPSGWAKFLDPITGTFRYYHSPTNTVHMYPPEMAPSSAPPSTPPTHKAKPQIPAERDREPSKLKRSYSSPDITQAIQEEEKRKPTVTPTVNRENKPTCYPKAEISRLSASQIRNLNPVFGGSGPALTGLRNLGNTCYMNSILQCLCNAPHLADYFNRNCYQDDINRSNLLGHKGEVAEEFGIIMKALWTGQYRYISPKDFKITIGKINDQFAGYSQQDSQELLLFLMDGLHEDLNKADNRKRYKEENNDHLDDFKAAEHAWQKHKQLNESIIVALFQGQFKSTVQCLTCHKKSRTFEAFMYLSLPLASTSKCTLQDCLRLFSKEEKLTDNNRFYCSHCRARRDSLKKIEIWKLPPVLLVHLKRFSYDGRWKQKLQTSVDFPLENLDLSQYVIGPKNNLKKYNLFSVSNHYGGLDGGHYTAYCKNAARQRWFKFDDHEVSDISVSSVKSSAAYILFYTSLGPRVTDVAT

[2] = target: DUBs and other proteins in HEK293 cells (Homo sapiens, UniProt P54578); settings: replicates A-C; for Log2 reporter intensity values: USP14: competition with ABP 2, DMSO substract (FC); for Log2 reporter intensity values: USP14, DMSO subtracted
[3] = target: DUBs and other proteins in HEK293 cells (Homo sapiens, UniProt Q6P2Q9); settings: replicates A-C; for Log2 reporter intensity values: PRPF8: competition with ABP 2, DMSO substract (FC); for Log2 reporter intensity values: PRPF8, DMSO subtracted
[4] = target: T2, DUBs and other proteins in HEK293 cells (Homo sapiens, UniProt Q86UV5); settings: for Log2 reporter intensity values: USP48: competition with ABP 2, DMSO substract (FC), replicates A-B; for Log2 reporter intensity values: USP48, DMSO subtracted
T2 sequence (Q86UV5 1-1035): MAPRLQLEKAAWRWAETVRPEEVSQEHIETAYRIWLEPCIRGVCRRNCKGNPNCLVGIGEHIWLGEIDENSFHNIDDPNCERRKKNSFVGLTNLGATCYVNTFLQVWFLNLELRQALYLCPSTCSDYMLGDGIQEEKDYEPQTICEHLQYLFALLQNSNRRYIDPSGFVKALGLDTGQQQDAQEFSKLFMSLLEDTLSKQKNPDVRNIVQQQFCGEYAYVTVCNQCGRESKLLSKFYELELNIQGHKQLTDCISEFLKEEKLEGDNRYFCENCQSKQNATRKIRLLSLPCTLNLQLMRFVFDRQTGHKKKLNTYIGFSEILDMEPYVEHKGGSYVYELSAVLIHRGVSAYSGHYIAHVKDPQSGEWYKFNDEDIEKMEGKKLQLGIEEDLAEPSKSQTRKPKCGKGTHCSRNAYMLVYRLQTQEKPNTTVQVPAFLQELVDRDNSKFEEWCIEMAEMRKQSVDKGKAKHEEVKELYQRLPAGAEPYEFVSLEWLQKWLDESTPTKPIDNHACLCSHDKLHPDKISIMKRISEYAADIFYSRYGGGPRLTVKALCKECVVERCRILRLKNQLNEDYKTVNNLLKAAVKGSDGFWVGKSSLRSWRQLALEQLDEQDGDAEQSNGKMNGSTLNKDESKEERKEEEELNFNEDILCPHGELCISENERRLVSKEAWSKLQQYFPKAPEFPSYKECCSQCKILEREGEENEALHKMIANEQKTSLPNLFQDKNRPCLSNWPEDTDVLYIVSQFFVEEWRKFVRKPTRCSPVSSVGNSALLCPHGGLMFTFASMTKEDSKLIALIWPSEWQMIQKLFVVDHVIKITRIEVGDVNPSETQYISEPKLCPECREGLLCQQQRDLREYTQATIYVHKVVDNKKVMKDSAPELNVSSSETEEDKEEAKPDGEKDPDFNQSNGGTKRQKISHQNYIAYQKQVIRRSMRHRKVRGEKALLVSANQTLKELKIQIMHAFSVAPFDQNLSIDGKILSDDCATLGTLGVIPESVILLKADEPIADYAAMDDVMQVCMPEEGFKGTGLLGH

[5] = target: DUBs and other proteins in HEK293 cells (Homo sapiens, UniProt Q92905); settings: for Log2 reporter intensity values, COPS5: TMT replicates; for Log2 reporter intensity values / Log2 reporter intensity values: COPS5: replicates A-C; for Log2 reporter intensity values: COPS5: competition with ABP 2, DMSO substract (FC)
[6] = LDN_5 μM, replicates A-B (C NaN)
[7] = LDN_25 μM, replicates A-B (C NaN)

DUBs and other proteins in HEK293 cells (Homo sapiens, UniProt Q92905), sequence (Q92905 whole entry): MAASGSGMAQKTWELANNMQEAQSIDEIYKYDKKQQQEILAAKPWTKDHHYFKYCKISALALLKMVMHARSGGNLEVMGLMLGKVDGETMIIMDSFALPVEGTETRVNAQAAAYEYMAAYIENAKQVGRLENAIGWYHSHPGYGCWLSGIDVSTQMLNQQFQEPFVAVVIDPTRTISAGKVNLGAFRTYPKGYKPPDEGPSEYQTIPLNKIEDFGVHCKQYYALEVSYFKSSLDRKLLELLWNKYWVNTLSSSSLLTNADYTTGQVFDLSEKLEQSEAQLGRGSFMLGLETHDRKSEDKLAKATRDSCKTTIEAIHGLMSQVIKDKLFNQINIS
DUBs and other proteins in HEK293 cells (Homo sapiens, UniProt P54578), sequence (P54578 whole entry): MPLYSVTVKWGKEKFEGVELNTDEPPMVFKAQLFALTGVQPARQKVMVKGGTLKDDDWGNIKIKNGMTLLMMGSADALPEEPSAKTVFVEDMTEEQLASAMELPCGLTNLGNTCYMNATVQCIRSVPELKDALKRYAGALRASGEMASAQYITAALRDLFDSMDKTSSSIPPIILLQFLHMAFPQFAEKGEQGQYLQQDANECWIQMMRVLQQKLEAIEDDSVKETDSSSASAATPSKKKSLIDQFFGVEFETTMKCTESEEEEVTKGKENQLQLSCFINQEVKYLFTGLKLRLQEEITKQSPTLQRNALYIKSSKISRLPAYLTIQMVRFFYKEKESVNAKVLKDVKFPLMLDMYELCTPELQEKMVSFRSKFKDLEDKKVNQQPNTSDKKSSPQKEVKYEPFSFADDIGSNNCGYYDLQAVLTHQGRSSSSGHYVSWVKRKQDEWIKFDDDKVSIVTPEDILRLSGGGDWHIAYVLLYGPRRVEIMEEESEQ

CC(=O)O/N=C1\C(=O)N(Cc2cc(Cl)ccc2Cl)c2ccc(Cl)cc21 [LDN]
Log2 reporter intensity values: USP8 ([1]; LDN at 5 μM): 1.057 and 1.015 | Log2 reporter intensity values: USP8 ([1]; LDN at 25 μM): 1.052 and 0.9465 | Log2 reporter intensity values ([1]; LDN at 5 μM, replicates A-C): 0.08034 and 0.0217 | Log2 reporter intensity values ([1]; LDN at 25 μM, replicates A-C): 0.07275 and -0.07932 | Log2 reporter intensity values [1, 6]: 0.05482 and 0.0127 | Log2 reporter intensity values [1, 7]: 0.04927 and -0.05595 | Log2 reporter intensity values: USP14 ([2]; LDN at 5 μM): 1.178 and 1.18 and 1.165 | Log2 reporter intensity values: USP14 ([2]; LDN at 25 μM): 1.092 and 1.124 and 1.125 | Log2 reporter intensity values ([2]; LDN at 5 μM): 0.2361 and 0.2386 and 0.2201 | Log2 reporter intensity values ([2]; LDN at 25 μM): 0.1275 and 0.1688 and 0.1694 | Log2 reporter intensity values ([2]; LDN_5 μM): 0.1776 and 0.1796 and 0.1646 | Log2 reporter intensity values ([2]; LDN_25 μM): 0.0922 and 0.1239 and 0.1243 | Log2 reporter intensity values: PRPF8 ([3]; LDN at 5 μM): 0.8673 and 0.9446 and 0.9404 | Log2 reporter intensity values: PRPF8 ([3]; LDN at 25 μM): 0.9445 and 0.9891 and 0.9788 | Log2 reporter intensity values ([3]; LDN at 5 μM): -0.2054 and -0.08218 and -0.0886 | Log2 reporter intensity values ([3]; LDN at 25 μM): -0.08236 and -0.01582 and -0.0309 | Log2 reporter intensity values ([3]; LDN_5 μM): -0.1329 and -0.05561 and -0.05981 | Log2 reporter intensity values ([3]; LDN_25 μM): -0.05573 and -0.01115 and -0.02143 | Log2 reporter intensity values: USP48 ([4]; LDN at 5 μM): 1.048 and 1.119 | Log2 reporter intensity values: USP48 ([4]; LDN at 25 μM): 1.118 and 1.08 | Log2 reporter intensity values ([4]; LDN at 5 μM, replicates A-C): 0.0673 and 0.1618 | Log2 reporter intensity values ([4]; LDN at 25 μM, replicates A-C): 0.1604 and 0.1117 | Log2 reporter intensity values [4, 6]: 0.04647 and 0.1174 | Log2 reporter intensity values [4, 7]: 0.1163 and 0.0792 | Log2 reporter intensity values, COPS5 ([5]; 5 μM LDN-57444 (60 min) + 20 nM ABP 2 (10 min), All values): 0.02618 and -0.0337 and -0.04942 | Log2 reporter intensity values, COPS5 ([5]; 5 μM LDN-57444 (60 min) + 20 nM ABP 2 (10 min), DMSO subtracted): 0.0843 and 0.02441 and 0.00869 | Log2 reporter intensity values, COPS5 ([5]; 25 μM LDN-57444 (60 min) + 20 nM ABP 2 (10 min), All values): 0.09342 and -0.06531 and -0.07503 | Log2 reporter intensity values, COPS5 ([5]; 25 μM LDN-57444 (60 min) + 20 nM ABP 2 (10 min), DMSO subtracted): 0.1515 and -0.007194 and -0.01692 | Log2 t-test Difference ([5]; COPS5, LDN - 5 μM): -0.1232 | Log2 reporter intensity values ([5]; COPS5, LDN at 5 μM, DMSO subtracted): 0.0843 and 0.02441 and 0.00869 | Log2 reporter intensity values ([5]; COPS5, LDN at 25 μM, DMSO subtracted): 0.1515 and -0.007194 and -0.01692 | Log2 reporter intensity values ([5]; COPS5, LDN_5 μM, DMSO subtracted): 0.06009 and 0.01698 and 0.005959 | Log2 reporter intensity values ([5]; COPS5, LDN_25 μM, DMSO subtracted): 0.1107 and -0.005057 and -0.01174 | Log2 reporter intensity values: COPS5 ([5]; LDN at 5 μM): 1.06 and 1.017 and 1.006 | Log2 reporter intensity values: COPS5 ([5]; LDN at 25 μM): 1.111 and 0.995 and 0.9883
